Patent US11510980B2, “Brartemicin analogues” (VICTORIA LINK LTD, priority 2017, dated 2022)

Assays:
hMincle-Ig = target: T1, hMincle-Ig (Homo sapiens, UniProt Q9ULY5); test: In vitro Mincle binding assay (ELISA) with hMincle-Ig fusion protein; conditions: plate-coated ligand 0.1 nmol/well
T1 construct: using soluble Mincle-Ig fusion-proteins; made in house
T1 sequence (Q9ULY5 41-219 limits assumed): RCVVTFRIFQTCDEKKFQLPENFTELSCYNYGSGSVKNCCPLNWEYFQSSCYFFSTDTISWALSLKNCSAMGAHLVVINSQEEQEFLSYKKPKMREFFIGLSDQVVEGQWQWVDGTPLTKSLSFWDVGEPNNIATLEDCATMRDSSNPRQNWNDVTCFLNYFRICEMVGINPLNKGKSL
Procedure: (§1) Preparation of ligand-coated plates: Brartemicin analogues 9a-9i, TDM (Carbosynth, Sigma Aldrich), and TDB^14 were dissolved in CHCl3:MeOH (2:1, 1 mM), diluted in isopropanol ([…]) and added to 96-well plates (20 μL/well). The solvents were evaporated and the coated plates were used immediately.
(§2) In vitro Mincle binding assay: The preparation of mMincle- and hMincle-Ig fusion proteins have been previously described. Plate-coated glycolipids 9a-i, TDB, and TDM were incubated with hMincle-Ig, mMincle-Ig, or hIgG1-Fc (Ig) [3 μg/mL in binding buffer (20 mM Tris-HCl, 150 mM NaCl, 1 mM CaCl2), 2 mM MgCl2, pH 7.0)]. Detection of bound protein was achieved via incubation with anti-hIgG-HRP followed by the addition of a colorimetric substrate and measurement of OD at 450 nm. Background was accounted for by subtracting the hIgG1-Fc OD450 values from fusion protein OD450 values
(§3) The synthesised brartemicin analogues prepared in Example 1 were first tested for their ability to bind to both human and murine Mincle in an enzyme-linked immunosorbent assay (ELISA) using soluble Mincle-Ig fusion-proteins (FIG. 1a).

mMincle-Ig = target: T2, mMincle-Ig (Mus musculus, UniProt Q9R0Q8); test: In vitro Mincle binding assay (ELISA) with mMincle-Ig fusion protein; design: species or system murine; conditions: plate-coated ligand 0.1 nmol/well
T2 construct: using soluble Mincle-Ig fusion-proteins; made in house
T2 sequence (Q9R0Q8 46-214 limits assumed): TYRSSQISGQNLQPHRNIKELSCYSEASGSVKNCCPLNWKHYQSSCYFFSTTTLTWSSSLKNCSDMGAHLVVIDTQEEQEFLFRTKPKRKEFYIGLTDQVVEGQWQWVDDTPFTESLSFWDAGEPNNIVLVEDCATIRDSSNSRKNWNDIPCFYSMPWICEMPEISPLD
Procedure: as §1, §2, §3

mMincle+FcRγ = target: T3, mMincle+FcRγ (Mus musculus, UniProt Q9R0Q8); test: 2B4-NFAT-GFP reporter cells expressing mMincle+FcRγ; assay type: cell-based, murine; conditions: ligand-coated plates 0.01, 0.1 or 1 nmol/well, 18 hours
T3 construct: expressed in transfected cells; host or cells: 2B4-NFAT-GFP reporter cells
T3 sequence (Q9R0Q8 1-214): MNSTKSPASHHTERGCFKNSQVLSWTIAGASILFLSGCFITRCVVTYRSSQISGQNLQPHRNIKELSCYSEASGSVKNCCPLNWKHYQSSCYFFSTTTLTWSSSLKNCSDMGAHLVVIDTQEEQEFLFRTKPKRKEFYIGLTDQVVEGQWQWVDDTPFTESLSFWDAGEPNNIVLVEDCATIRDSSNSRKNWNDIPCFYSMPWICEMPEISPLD
T3 sequence (P20491 19-86 partner): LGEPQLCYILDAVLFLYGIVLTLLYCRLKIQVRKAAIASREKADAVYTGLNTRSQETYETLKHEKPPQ
Procedure: as §1
(§4) 2B4-NFAT-GFP reporter cells: 2B4-NFAT-GFP reporter cells expressing mMincle+FcRγ, hMincle+FcRγ, or FcRγ only have been previously described. […] The reporter cells were harvested, stained with propidium iodide, and analysed for NFAT-GFP expression using flow cytometry (FACS Calibur).
(§5) To determine whether the Mincle binding observed in Example 1 correlated with cellular activation, nuclear factor of activated T cells (NFAT)-green fluorescent protein (GFP) reporter cells expressing mMincle or hMincle coupled to FcRγ were stimulated using plates coated with TDM, TDB, brartemicin (9i), or analogues 9a-9h.
(§6) Activation of the reporter cells was measured through the production of GFP, which was monitored by flow cytometry (FIGS. 1b and 3c).
(§7) With the compounds 43a-h in hand, the ability of these analogues to bind and signal through Mincle was assessed (FIG. 5). Accordingly, NFAT-GFP reporter cells expressing mMincle+FcRγ, hMincle+FcRγ, or FcRγ-only were stimulated with the 2G-brartemicin analogues 43a-h, TDB, iPrOH, or the p-OC18H37 substituted analogue, 9f. Reporter cell activation was measured by the production of NFAT-GFP, which was analysed by flow cytometry.

hMincle+FcRγ = target: T4, hMincle+FcRγ (Homo sapiens, UniProt Q9ULY5); test: 2B4-NFAT-GFP reporter cells expressing hMincle+FcRγ; assay type: cell-based; conditions: ligand-coated plates 0.01, 0.1 or 1 nmol/well, 18 hours
T4 construct: expressed in transfected cells; host or cells: 2B4-NFAT-GFP reporter cells
T4 sequence (Q9ULY5 1-219): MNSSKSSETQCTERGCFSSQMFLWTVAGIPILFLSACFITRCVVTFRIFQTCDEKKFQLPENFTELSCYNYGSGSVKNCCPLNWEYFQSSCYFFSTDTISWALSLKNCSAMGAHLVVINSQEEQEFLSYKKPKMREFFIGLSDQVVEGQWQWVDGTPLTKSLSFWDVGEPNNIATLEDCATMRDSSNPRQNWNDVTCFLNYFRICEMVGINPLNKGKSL
Procedure: as §1, §4, §5, §6, §7

wild-type GM-CSF BMDMs = test: Cytokine/chemokine production by wild-type GM-CSF BMDMs on ligand-coated plates; assay type: cell-based, C57BL/6 mice; conditions: wild-type BMDMs, coated plates 0.1 or 1 nmol/well, 24 hours, ELISA
Procedure: as §1
Murine bone-marrow derived macrophages: For the preparation of murine bone-marrow derived macrophages, bone marrow cells were collected from the tibias and femurs of C57BL/6 mice and cultured (250,000 cells/mL) in complete RPMI media [RPMI-1640 (Gibco) with 10% heat inactivated fetal bovine serum (Gibco), 100 unit/mL penicillin-streptomycin (Gibco) and 2 mM Glutamax (Gibco)] supplemented with 50 ng/mL GM-CSF (clone X63/GM-CSF murine cells). Cells were incubated at 37° C. (5% CO2) for 8 days (cells fed by replacing half the media on days 3 and 6). On day 8, all media was removed and the cells were washed with Dulbecco's Phosphate-Buffered Saline (DPBS, Gibco) to remove any loosely-adherent cells. The BMDMs were harvested with StemPro Acutase (1 mL/well, 15 minutes at room temperature, Gibco) and seeded onto a pre-coated 96-well plate. The supernatant was collected and analysed for cytokine/chemokine production after 24 hours.
Cytokine analysis: IL-1β, IFN-γ, IL-6, TNF-α (BD Biosciences), IL-17, and MIP-2 (R&D) levels were determined via sandwich ELISA according to the manufacturer's instructions.
First, the ability of the compounds to activate GM-CSF BMDMs was determined by monitoring the secretion of the inflammatory cytokines TNF, IL-6, and IL-1β and the chemokine, MIP-2, in a ligand-coated plate assay (FIG. 2).
To gain insight into the capacity of the 2G-series of brartemicin analogues to induce an inflammatory immune response, the analogues were then screened for their ability to activate WT and Mincle^−/− BMDMs, with cellular activation being determined by the measurement of IL-1B using ELISA (FIG. 6).

C57BL/6 mice = test: Delayed-type hypersensitivity immunisation with OVA in oil-in-water emulsion; assay type: in vivo
Procedure: Delayed-type hypersensitivity: Mice were sensitised by subcutaneous injection with oil-in-water emulsions (mineral oil/Tween-80/PBS, 9:1:90, v/v/v) containing OVA only (200 μg), OVA+TDB (OVA=200 μg, TDB=0.3 μmol), OVA+9a (OVA=200 μg, 9a=0.3 μmol) or no OVA. After seven days, the mice were challenged with OVA (100 μg/footpad) and after a further seven days, the mice were sacrificed and their spleens harvested. For in vitro restimulation, splenocytes were restimulated with OVA and analysed for spenocyte number (measured at 450 nm after 3 hours, Cell Count Reagent SF, Nacalai Tesque Inc.), IFN-γ production, and IL-17 production. Footpad swelling was measured using a venier caliper pre-challenge, 24 hours post-challenge, and 48 hours post-challenge. Sera were collected from each mouse on days 0, 7, and 14 and analysed for OVA-specific antibody titers by ELISA using HRP coupled goat anti-mouse IgG (GE Health-care), IgG1, IgG2b, IgG2c, and IgG3 (SouthernBiotec). EC50 were defined by plotting the absorbance at 450 nm against log of serum concentration. Antibody titration curves were plotted using GraphPad Prism7 (GraphPad Software).
Compound 9a was then evaluated in vivo to confirm its capacity to induce a Th1 antigen-specific response using a delayed-type hypersensitivity immunisation protocol. To this end, four groups of C57BL/6 mice were immunised by subcutaneous injection with oil-in-water emulsions containing either OVA only, OVA+C18dMeBrar (9a), OVA+TDB, or no OVA. After seven days the mice were challenged with OVA (100 μg per footpad) and after a further seven days, the splenocytes were isolated and restimulated with OVA at three concentrations (10, 30, or 100 μg/mL). The immune response was measured by determining footpad swelling, production of IFN-γ and IL-17 (FIG. 7b), T cell proliferation (FIG. 4a), and antibody titres (FIG. 4c). […] Accordingly, the ability of C18dMeBrar (9a) to lead to an enhanced Th1 immune response was even more striking. This overall immune profile was also reflected in the antibody production by immunised mice. […] A high IgG2c:IgG1 ratio is commonly associated with Th1 responses and a lower ratio is associated with Th2 responses. The production of IgG2c in mice immunised with C18dMeBrar increased three-fold as compared to OVA alone, providing evidence that C18dMeBrar induces a Th1-biased immune response.

Compound | binding to hMincle-Ig (ELISA, OD at 450 nm) (hMincle-Ig) | binding to mMincle-Ig (ELISA, OD at 450 nm) (mMincle-Ig) | activation of mMincle NFAT-GFP reporter cells (GFP by flow cytometry) (mMincle+FcRγ) | activation of hMincle NFAT-GFP reporter cells (GFP by flow cytometry) (hMincle+FcRγ) | IL-1β production (wild-type GM-CSF BMDMs) | IL-6 production (wild-type GM-CSF BMDMs) | MIP-2 production (wild-type GM-CSF BMDMs) | TNF production (wild-type GM-CSF BMDMs) | Th1 immune response / adjuvant activity in vivo (C57BL/6 mice; s.c. OVA 200 μg + adjuvant 0.3 μmol, oil-in-water emulsion) | footpad swelling (C57BL/6 mice; s.c. OVA 200 μg + adjuvant 0.3 μmol, OVA challenge 100 μg/footpad) | IL-17 production by splenocytes restimulated with OVA (C57BL/6 mice; s.c. OVA 200 μg + adjuvant 0.3 μmol, restimulation 10, 30 or 100 μg/mL OVA) | antigen specific IFN-γ production, all concentrations of OVA (C57BL/6 mice; s.c. OVA 200 μg + adjuvant 0.3 μmol, splenocytes restimulated with 10, 30 or 100 μg/mL OVA) | IgG1 antibody production (C57BL/6 mice; serum, ELISA) | IgG2b antibody production (C57BL/6 mice; serum, ELISA) | IgG2c antibody production (C57BL/6 mice; serum, ELISA) | production of OVA-specific IgG antibodies (C57BL/6 mice; serum, ELISA)
CCCCCCCOc1ccc(C(=O)OCC2O[C@H](O[C@H]3OC(COC(=O)c4ccc(OCCCCCCC)cc4O)[C@@H](O)C(O)C3O)C(O)C(O)[C@@H]2O)c(O)c1 (stereo partly drawn) [9b, 6,6′-Di-O-(4-heptyloxy-2-hydroxybenzoyl)-α,α′-D-trehalose] | good binding | good binding | activated mMincle and hMincle NFATGFP reporter cells but to a lesser extent than the C18 analogues | activated mMincle and hMincle NFATGFP reporter cells but to a lesser extent than the C18 analogues | modest production | modest production | modest production | modest production |  |  |  |  |  |  |  | 
COc1ccc(C(=O)OCC2O[C@H](O[C@H]3OC(COC(=O)c4ccc(OC)cc4O)[C@@H](O)C(O)C3O)C(O)C(O)[C@@H]2O)c(O)c1 (stereo partly drawn) [9d, 6,6′-Di-O-(2-hydroxy-4-methoxybenzoyl)-α,α′-D-trehalose] | did not bind hMincle- or mMincle-Ig to any great extent | did not bind hMincle- or mMincle-Ig to any great extent |  | only modest activation of hMincle at a high ligand concentration | did not induce the production of any of the cytokines measured | did not induce the production of any of the cytokines measured | did not induce the production of any of the cytokines measured | did not induce the production of any of the cytokines measured |  |  |  |  |  |  |  | 
O=C(OCC1O[C@H](O[C@H]2OC(COC(=O)c3ccc(O)cc3O)[C@@H](O)C(O)C2O)C(O)C(O)[C@@H]1O)c1ccc(O)cc1O (stereo partly drawn) [9e, 6,6′-Di-O-(2,4-dihydroxybenzoyl)-α,α′-D-trehalose] | did not bind hMincle- or mMincle-Ig to any great extent | did not bind hMincle- or mMincle-Ig to any great extent | did not significantly activate mMincle |  | did not induce the production of any of the cytokines measured | did not induce the production of any of the cytokines measured | did not induce the production of any of the cytokines measured | did not induce the production of any of the cytokines measured |  |  |  |  |  |  |  | 
CCCCCCCCCCCCCCCCCCCCCC(=O)OC[C@H]1O[C@H](O[C@H]2O[C@H](COC(=O)CCCCCCCCCCCCCCCCCCCCC)[C@@H](O)[C@H](O)[C@H]2O)[C@H](O)[C@@H](O)[C@@H]1O [TDB, trehalose dibehenate, reference compound] |  |  |  |  | significant production | significant production | significant production | significant production | limited efficacy | neither 9a nor TDB induced any | neither 9a nor TDB induced any | did not lead to a significant increase | showed increases | showed increases | showed increases | elevated the production of IgG antibodies
trehalose dimycolate [TDM, reference compound] |  |  |  |  | significant production | significant production | significant production | significant production |  |  |  |  |  |  |  | 
